# Patent US5795891A, “Acylphenylglycine derivative and preventive and remedy for diseases caused by increased collagenase activity containing said compound as active ingredient” (Kanebo Ltd., priority 1993, dated 1998)
# Columns and labels:
# adjuvant arthritis [1] = assay: Adjuvant arthritis model: serum calcium concentration; assay type: in vivo, male Lewis rats; settings: 100 mg/kg at 12-hour intervals for 20 days; for effect on increase in serum calcium concentration (in words): vs control; for Serum calcium conc.: day 21, control 9.5 ± 0.1, normal 8.6 ± 0.1, ** P < 0.01 vs control (Compound D)
# Protocol: (§1) 8-week old male Lewis rats (Charles River Japan, K.K.) were divided into 4 groups (normal control group, control group, and two test compound groups) of 7 animals each. Each of the rats of the control group and the test compound groups were intra-dermally injected with 0.6 mg of heat-killed M. butyricum in 0.1 ml of liquid paraffin suspension in their right hind paw to induce adjuvant arthritis. The test compounds were suspended in 0.5% CMC, and administered to the rats of the test compound group at a dose of 100 mg/kg per administration immediately after the injection of adjuvant and at 12-hour intervals thereafter over a period of 20 days. The rats of the control group received 0.5% CMC immediately after the injection of adjuvant and at 12-hour intervals thereafter over a period of 20 days. The rats of the normal control group were not injected with adjuvant but only administered 0.5% CMC analogously to the administration of the test compounds.
# Measurement was carried out on the same sample as above 2) using Calcium TestWAKO (Wako Junyaku), and statistical analysis was made according to the Dunnett's method for the superiority of the test compound group over the control group.
# bone resorption = assay: Test for inhibition of bone resorption: urine hydroxyproline/creatinine ratio in rats on calcium-deficient food; assay type: in vivo, male Wister rats; settings: for effect on increase in urine hydroxyproline/creatinine ratio (in words): 100 mg/kg p.o., vs control; for Urinary hydroxyproline excretion (ratio to creatinine): single 100 mg/kg p.o., urine 16 hours, control 174 ± 7, normal 134 ± 7, * P < 0.05 vs control (Compound D)
# Protocol: Furthermore, an investigation of its suppressive effect was carried out on bone resorption by administering the compound of the present invention to rats kept on a calcium-deficient food and using the urinary hydroxyproline excretion (ratio to creatinine) as an index.
# (§2) After the last administration of the test compounds on day 20, the rats were transferred into metabolic cages, and urine samples were collected overnight without supply of food or water. Urine volume and the amounts of creatinine and hydroxyproline were determined by the following method, and urinary hydroxyproline excretion expressed in the ratio to creatinine. Statistical analysis was made according to the Tukey's method for the superiority of test compound group over the control group. Determination of creatinine was carried out using Creatinine TestWAKO (Wako Junyaku). Hydroxyproline was determined by first hydrolyzing the urine with 6N hydrochloric acid, then isolation on high performance liquid chromatograph equipped with ion-exchange column (Hitachi Gel #2619), reaction with O-phthalaldehyde to form a hydroxyproline derivative, and measurement on a fluorophotometer.
# 6-week old male Wister rats (SLC Japan) were kept on a calcium-deficient food (Oriental Yeast, 0.0105-0.012% calcium, 0.62% phosphorus), orally administered 100 mg/kg of compound D or Y in a 0.5% CMC suspension on day 6 and, immediately thereafter, urine was collected for 16 hours under the condition of fasting with free access to water. The urine volume and urinary hydroxyproline and creatinirie content were measured by the method described in Example 3, and the urine hydroxyproline/creatinie ratio was calculated. Statistical analysis was made using the Tukey's method for the superiority of the test compound group over the control group.
# adjuvant arthritis [2] = assay: Adjuvant arthritis model: erythrocyte sedimentation rates; assay type: in vivo, male Lewis rats; settings: 100 mg/kg at 12-hour intervals for 20 days; for effect on increase in erythrocyte sedimentation rates (in words): vs control; for Erythrocyte sedimentation rates: day 21, control 33 ± 2, normal 1 ± 0.1, ** P < 0.01 vs control (Compound D)
# Protocol: as §1
# The blood was fully removed on day 21 and used as a sample. Erythrocyte sedimentation measuring apparatus (Matsuyoshi's Erythrocyte Sedimentation rack) was used for the measurement, and statistical analysis was made according to the Dunnett's method for the superiority of the test compound group over the control group.
# collagenase [3] = assay: Collagenase activity inhibition rate in blood after oral administration (in mice); assay type: in vivo; settings: 30 mg/kg p.o.; for Collagenase Inhibition rates in blood after oral administration, After 2 hours: after 2 hours (as printed in head; text says 3 hours)
# Protocol: Test compounds were suspended in 0.5% CMC and orally administered to three mice per group (the dose of the test compound, 30 mg/kg), and after a certain period of time, the blood was collected in the presence of heparin and ice-cooled. Plasma was obtained by centrifugation of this blood at 10,000 rpm for 5 minutes at 4° C. To 400 μl of this plasma was added to 600 μl of distilled water, and heated at 100° C. for 10 minutes. After cooling, the mixture was centrifuged at 10,000 rpm for 5 minutes and filtered using a micro-volume ultrafiltration unit (Molcut II, Millipore) to provide a sample (A) for use in collagenase activity measurement. Using this sample, collagenase activity inhibition rate in blood was determined by the following method.
# The sample (A) above was mixed with a known amount of collagenase (the collagenase used was prepared by the method described in JP-A-3-103178) dissolved in a buffer for measurement (50 mM Tris-HCl buffer, pH 7.5, containing 0.2M sodium chloride, 5 mM calcium chloride, 0.05% Brij-35 and 0.02% sodium azide,), and collagenase activity A was measured according to the method of Nagai et al. (Japanese Journal of Inflammation, 4, 123 (1984)) using a fluorescein isothiocyanate-labeled type-I collagen as a substrate. […] Inhibition rate was determined from the following equation:
# Inhibition rate (%)=(1-A/B)×100
# adjuvant arthritis [4] = assay: Adjuvant arthritis model: urinary hydroxyproline excretion; assay type: in vivo, male Lewis rats; settings: for Urinary hydroxyproline excretion (ratio to creatinine): after day 20, 100 mg/kg at 12-hour intervals, control 94.3 ± 1.8, normal 71.8 ± 2.6
# Protocol: as §1, §2
# [5] = set-up: species or system mice; settings: mouse, in vivo, 3000 mg/kg
# adjuvant arthritis [6] = assay: Adjuvant arthritis model: hind paw volume (swelling of adjuvant-uninjected hind paw); assay type: in vivo, male Lewis rats; settings: 100 mg/kg at 12-hour intervals for 20 days; FIG. 1; t-test vs control
# Protocol: as §1
# The volume of the hind paw was measured immediately before and on days 3, 7, 10, 14, 17 and 20 after the injection of adjuvant using a foot volume measuring apparatus. Analysis was made using t-test for superiority of the test compound group over the control group.
# In the figure, lines n, c, y and d indicate the volume of the hind paw for the following groups, respectively: […]
# collagenase [7] = assay: Activity in the living body / absorbability (general statements); settings: in vivo
SMILES,effect on increase in serum calcium concentration (in words) (adjuvant arthritis [1]),Serum calcium conc. (adjuvant arthritis [1]) [mg/dL],effect on increase in urine hydroxyproline/creatinine ratio (in words) (bone resorption),Urinary hydroxyproline excretion (ratio to creatinine) (bone resorption) [μg/mg creatinine],effect on increase in erythrocyte sedimentation rates (in words) (adjuvant arthritis [2]),Erythrocyte sedimentation rates (adjuvant arthritis [2]),"Collagenase Inhibition rates in blood after oral administration, After 1 hour (collagenase [3]) [%]","Collagenase Inhibition rates in blood after oral administration, After 2 hours (collagenase [3]) [%]",Urinary hydroxyproline excretion (ratio to creatinine) (adjuvant arthritis [4]) [μg/mg creatinine],death after oral administration [5],swelling (volume increase) of the adjuvant-uninjected hind paw (adjuvant arthritis [6]),activity in the living body (in words) (collagenase [7]),effect on increase in urinary hydroxyproline excretion (in words) (adjuvant arthritis [4]; 100 mg/kg at 12-hour intervals for 20 days)
"CNC(=O)[C@H](Cc1ccccc1)NC(=O)[C@H](CC(C)C)[C@H](CSc1cccs1)C(=O)NO [Known compound Y, [4-(N-hydroxyamino)-2(R)-isobutyl-3(S)-(2-thienyl)thiomethylsuccinyl]-L-phenylalanine-N-methylamide, reference compound]",no such effect was noted,9.6 ± 0.1,hardly suppressed this increase,161 ± 3,no such effect was noted,30 ± 3,14,21,107.1 ± 6.5,–,–,–,–
"CNC(=O)C(NC(=O)C(CC(C)C)C(C)C(=O)NO)c1ccccc1 (single isomer, unassigned) [Compound D]",significantly suppressed the increase in serum calcium concentration,8.9 ± 0.1,exhibited a significant suppression from the level of the control group,144 ± 5,significantly suppressed the increase in erythrocyte sedimentation rates,20 ± 2,87,76,78.4 ± 6.1,no death was observed,suppressed the swelling (volume increase) of the adjuvant-uninjected hind paw,exhibits an excellent activity in the living body,tended to suppress the increase in urinary hydroxyproline excretion
